The test has as its system Alternaria solani. In words: Mycelial growth test. Type of test: cell-based. The settings on record: AS; for inhibition at 5 ppm / inhibition at 10 ppm / inhibition at 20 ppm / inhibition at 40 ppm: Alternaria solani, 72 h, read-out: Percent Fungus Growth Inhibition; for Percent Fungus Growth Inhibition: 72 hours, hydrochloride.

Structures are written as SMILES. Structures can show the parent of a compound that is named as a salt.

For orientation: inhibition means the percentage by which the read-out fell short of the control.

Consider `Cc1cc(C)cc(Oc2nsnc(Cl)c2=O)c1` [Compound 25, 3-chloro-5-(3,5-dimethylphenoxy)-4H--1,2,6-thiadiazin-4-one], for which the inhibition at 5 ppm (5 ppm) came to 69%. Also, under “10 ppm”, the inhibition at 10 ppm was determined as 75%. In addition, the inhibition at 20 ppm (20 ppm) turned out to be 81%. Further, for the setting “40 ppm”, the inhibition at 40 ppm was found to be 88%.
On the same counts, the results for `Nc1ccc(Oc2nsnc(Cl)c2=O)cc1` [Compound 26, 5-(4-aminophenoxy)-3-chloro-4H--1,2,6-thiadiazin-4-one] are 60%, 80%, 100% and 100%.
`Nc1ccc(Oc2nsnc(Cl)c2=O)cc1` [Compound 27, 5-(4-aminophenoxy)-3-chloro-4H--1,2,6-thiadiazine-4-one hydrochloride]: the “Percent Fungus Growth Inhibition” value was determined as 47% (5 ppm), 73% (10 ppm), 80% (20 ppm) and 87% (40 ppm).
On to `CNC(=O)Nc1ccc(Oc2nsnc(Cl)c2=O)cc1` [Compound 28, 3-chloro-5-[4-(3-methylureido)-phenoxy]-4H--1,2,6-thiadiazin-4-one], for which the inhibition at 5 ppm (5 ppm) is 40%. For the same molecule, the inhibition at 10 ppm (10 ppm) was determined as 47%. For the setting “20 ppm”, the inhibition at 20 ppm amounted to 50%. Besides, the inhibition at 40 ppm (40 ppm) is 70%.
On the same counts, the results for `O=C(Nc1ccccc1)Nc1ccc(Oc2nsnc(Cl)c2=O)cc1` [Compound 29, 3-chloro-5-[4-(3-phenylureido)-phenoxy]-4H--1,2,6-thiadiazin-4-one] are 47%, 30%, 37% and 47%.
On to `O=c1c(Cl)nsnc1Oc1c(Cl)cc(Cl)cc1Cl` [Compound 30, 3-chloro-5-(2,4,6-trichlorophenoxy)-4H--1,2,6-thiadiazin-4-one], for which the inhibition at 5 ppm (5 ppm) was 29%. The inhibition at 10 ppm (10 ppm) worked out at 67%. The inhibition at 20 ppm (20 ppm) came to 81%. In addition, the inhibition at 40 ppm (40 ppm) was 90%.
For `O=c1c(Cl)nsnc1Oc1c(Cl)c(Cl)c(Cl)c(Cl)c1Cl` [Compound 31, 3-chloro-5-(pentachlorophenoxy)-4H--1,2,6-thiadiazine-4-one] the same measures were 48%, 60%, 48% and 67%.
On the same counts, the results for `O=c1c(Cl)nsnc1Oc1cccc2ccccc12` [Compound 32, 3-chloro-5(1-naphthoxy)-4H-1,2,6-thiadiazin-4-one] are 58%, 58%, 88% and 92%.
On the same counts, the results for `O=c1c(Cl)nsnc1Oc1ccccc1Br` [Compound 34, 3-chloro-5-(2-bromophenoxy)-4H-1,2,6,-thiadiazin-4-one] are 100%, 100%, 100% and 100%.
Regarding `O=c1c(Cl)nsnc1Oc1ccc(O)cc1` [Compound 35, 3-chloro-5-(4-hydroxyphenoxy)-4H-1,2,6-thiadiazin-4-one], the inhibition at 5 ppm (5 ppm) is 90%. Further, for the setting “10 ppm”, the inhibition at 10 ppm stood at 100%. Under “20 ppm”, the inhibition at 20 ppm is 100%. Also, the inhibition at 40 ppm (40 ppm) was determined as 100%.
As for `O=C(Nc1ccccc1)Oc1ccc(Oc2nsnc(Cl)c2=O)cc1` [Compound 37, 3-chloro-5-[4-(phenylaminocarbonyloxy)phenoxy]-4H-1,2,6,-thiadiazin-4-one], the inhibition at 5 ppm (5 ppm) was determined as 46%. The inhibition at 10 ppm (10 ppm) was 50%. Further, the inhibition at 20 ppm (20 ppm) worked out at 50%. For the same molecule, where the note is “40 ppm”, the inhibition at 40 ppm was found to be 54%.
Take `O=C(OCc1ccccc1)Oc1ccc(Oc2nsnc(Cl)c2=O)cc1` [Compound 38, 3-chloro-5-[4-(phenylmethoxycarbonyloxy)phenoxyl]-4H-1,2,6-thiadiazin-4-one]: the inhibition at 5 ppm (5 ppm) was found to be 5%. Moreover, the inhibition at 10 ppm (10 ppm) amounted to 48%. Also, for the setting “20 ppm”, the inhibition at 20 ppm amounted to 33%. The inhibition at 40 ppm (40 ppm) stood at 90%.
For `CSc1ccc(Oc2nsnc(Cl)c2=O)cc1` [Compound 39, 3-chloro-5-[(4-methylthio)phenoxy]-4H-1,2,6,-thiadiazin-4-one] the same measures were 42%, 33%, 42% and 54%.
For `C[S+]([O-])c1ccc(Oc2nsnc(Cl)c2=O)cc1` (centres unmarked) [Compound 40, 3-chloro-5-[(4-methylsulfinyl)phenoxy]-4H-1,2,6,-thiadiazin-4-one] the same measures were 54%, 75%, 92% and 100%.
With `CS(=O)(=O)c1ccc(Oc2nsnc(Cl)c2=O)cc1` [Compound 41, 3-chloro-5-[(4-methylsulfonyl)phenoxy]-4H--1,2,6-thiadiazin-4-one], the inhibition at 5 ppm (5 ppm) is 54%. Moreover, the inhibition at 10 ppm (10 ppm) turned out to be 58%. In addition, the inhibition at 20 ppm (20 ppm) was determined as 58%. The inhibition at 40 ppm (40 ppm) is 100%.
For `CC(=O)Nc1cccc(Oc2nsnc(Cl)c2=O)c1` [Compound 42, 3-[(3-N--acetylamino)-phenoxy]-5-chloro-4H--1,2,6-thiadiazin-4-one], under “5 ppm”, the inhibition at 5 ppm was 24%. For the same molecule, where the note is “10 ppm”, the inhibition at 10 ppm was 33%. Where the note is “20 ppm”, the inhibition at 20 ppm came to 52%. For the setting “40 ppm”, the inhibition at 40 ppm turned out to be 90%.
For `CC(=O)Nc1ccccc1Oc1nsnc(Cl)c1=O` [Compound 43, 3-[(2-acetylamino)-phenoxy]-5-chloro-4H--1,2,6-thiadiazin-4-one], the inhibition at 5 ppm (5 ppm) was determined as 80%. Moreover, the inhibition at 10 ppm (10 ppm) worked out at 100%. Further, under “20 ppm”, the inhibition at 20 ppm came out at 100%. Further, under “40 ppm”, the inhibition at 40 ppm was 100%.
With `O=c1c(Cl)nsnc1Oc1cccc(C(F)(F)F)c1` [Compound 44, 3-chloro-5-[(3-trifluoromethyl)phenoxy]-4H--1,2,6-thiadiazin-4-one], the inhibition at 5 ppm (5 ppm) was 52%. The inhibition at 10 ppm (10 ppm) turned out to be 62%. In addition, the inhibition at 20 ppm (20 ppm) came out at 100%. In addition, the inhibition at 40 ppm (40 ppm) was 100%.
On to `O=C(O)Cc1ccccc1Oc1nsnc(Cl)c1=O` [Compound 45, 3-(2-carboxymethylphenoxy)-5-chloro-4H--1,2,6-thiadiazin-4-one], for which the inhibition at 5 ppm (5 ppm) worked out at 4%. The inhibition at 10 ppm (10 ppm) came out at 0%. Besides, the inhibition at 20 ppm (20 ppm) was 25%. In addition, the inhibition at 40 ppm (40 ppm) was found to be 54%.
On the same counts, the results for `N#CCc1ccc(Oc2nsnc(Cl)c2=O)cc1` [Compound 46, 3-chloro-5-[(4-cyanomethyl)-phenoxy]4H--1,2,6-thiadiazin-4-one] are 71%, 81%, 100% and 100%.
For `CC(=O)c1ccc(Oc2nsnc(Cl)c2=O)cc1` [Compound 47, 3-(4-acetylphenoxy)-5-chloro-4H--1,2,6-thiadiazin-4-one] the same measures were 92%, 92%, 92% and 88%.
On the same counts, the results for `CC(=O)c1cccc(Oc2nsnc(Cl)c2=O)c1` [Compound 48, 3-(3-acetylphenoxy)-5-chloro-4H--1,2,6-thiadiazin-4-one] are 88%, 92%, 100% and 100%.
With `CC(=O)c1ccccc1Oc1nsnc(Cl)c1=O` [Compound 49, 3-(2-acetylphenoxy)-5-chloro-4H--1,2,6-thiadiazin-4-one], the inhibition at 5 ppm (5 ppm) was 100%. Besides, the inhibition at 10 ppm (10 ppm) amounted to 100%. Further, the inhibition at 20 ppm (20 ppm) is 100%. Also, under “40 ppm”, the inhibition at 40 ppm is 100%.
As for `O=C(O)c1ccc(Oc2nsnc(Cl)c2=O)cc1` [Compound 50, 3-(4-carboxyphenoxy)-5-chloro-4H--1,2,6-thiadiazin-4-one], the inhibition at 5 ppm (5 ppm) was 33%. The inhibition at 10 ppm (10 ppm) was 21%. The inhibition at 20 ppm (20 ppm) is 54%. In addition, the inhibition at 40 ppm (40 ppm) amounted to 63%.
For `COc1ccc(Cl)c(Oc2nsnc(Cl)c2=O)c1` [Compound 51, 3-chloro-5-[(2-chloro-5-methoxy)phenoxy]-4H--1,2,6-thiadiazin-4-one] the same measures were 52%, 75%, 81% and 90%.
For `COc1cc(Cl)cc(Oc2nsnc(Cl)c2=O)c1` [Compound 52, 3-chloro-5-[(3-chloro-5-methoxy)phenoxy]-4H--1,2,6-thiadiazin-4-one] the same measures were 52%, 71%, 90% and 90%.
On the same counts, the results for `O=c1c(Cl)nsnc1Oc1ccc([N+](=O)[O-])cc1Cl` [Compound 53, 3-chloro-5-(2-chloro-4-nitrophenoxy)-4H--1,2,6-thiadiazin-4-one] are 38%, 42%, 67% and 100%.
For `Cc1cc(Oc2nsnc(Cl)c2=O)ccc1Cl` [Compound 54, 3-chloro-5-(4-chloro-3-methylphenoxy)-4H--1,2,6-thiadiazin-4-one], under “5 ppm”, the inhibition at 5 ppm came to 70%. The inhibition at 10 ppm (10 ppm) amounted to 100%. For the same molecule, the inhibition at 20 ppm (20 ppm) was determined as 100%. Also, the inhibition at 40 ppm (40 ppm) turned out to be 100%.
For the molecule `Cc1cc(Cl)ccc1Oc1nsnc(Cl)c1=O` [Compound 55, 3-chloro-5-(4-chloro-2-methylphenoxy)-4H--1,2,6-thiadiazin-4-one], where the note is “5 ppm”, the inhibition at 5 ppm amounted to 100%. For the same molecule, for the setting “10 ppm”, the inhibition at 10 ppm came out at 100%. The inhibition at 20 ppm (20 ppm) came to 100%. The inhibition at 40 ppm (40 ppm) was 100%.
`Cc1ccc(Cl)c(Oc2nsnc(Cl)c2=O)c1` [Compound 56, 3-chloro-5-[(2-chloro-5-methyl)phenoxy]-4H--1,2,6-thiadiazin-4-one]: for the setting “5 ppm”, the inhibition at 5 ppm came to 52%. Also, the inhibition at 10 ppm (10 ppm) was determined as 71%. Also, the inhibition at 20 ppm (20 ppm) came out at 81%. Where the note is “40 ppm”, the inhibition at 40 ppm was determined as 100%.
On the same counts, the results for `Cc1ccc(Oc2nsnc(Cl)c2=O)c(Br)c1` [Compound 57, 3-[(2-bromo-4-methyl)-phenoxy]-5-chloro-4H--1,2,6-thiadiazin-4-one] are 71%, 90%, 90% and 90%.
For `Cc1cc(Cl)c(Oc2nsnc(Cl)c2=O)cc1C` [Compound 58, 3-chloro-5-[(2-chloro-4,5-dimethyl)phenoxy]-4H--1,2,6-thiadiazin-4-one] the same measures were 48%, 48%, 43% and 43%.

The record behind these values is patent US4450269A, “Mono-5-substituted-3-chloro-4H-1,2,6-thiadiazin-4-one antifungal agents” (FMC Corporation, priority 1980, dated 1984).
